No end group written: not given here.

Usually Kd stands for the constant that tells how readily two partners part at equilibrium. High values mean lower affinity, low ones higher affinity.

Data set [1] has as its target T1, Aβ42 (Homo sapiens, UniProt P05067). In words: CD spectroscopy. It counts as biochemical. The settings on record: co-incubation with Spike1058, dose-dependent, 48 h, 37 °C.
In data set [2] the target is T1, Aβ42. Kind of data set: biochemical. Format: binding.
Data set [3] has as its system zebrafish embryos. The settings on record: in vivo.
The target in data set [4] is T1, Aβ42. In words: SEC-HPLC-UV of Aβ42 and Spike1058 co-aggregation. It counts as biochemical. The settings on record: molar ratio 1:2, 4 h, 37 °C, UV 220 nm, PBS pH 5.6. For orientation: Size exclusion chromatography separates by hydrodynamic size, large species first.
Data set [5] has as its target T1, Aβ42. It counts as biochemical.
Data set [6] deals with zebrafish embryos. The settings on record: in vivo. This is another data set of the same source.

T1 sequence (P05067 672-713): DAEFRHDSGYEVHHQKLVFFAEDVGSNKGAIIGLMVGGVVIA

As to HGVVFLHVTYV [Spike1058], the “increase of β-sheet content of Aβ by co-incubation (CD)” value at Aβ42 [1] is listed as 16-35%. The same sequence had a Kd on Aβ42 [2] of 82.6 nM. For the same sequence, in the data set on zebrafish embryos [3], the “generation of biotic ROS, surpassing levels with Aβ or Spike1058 alone” value is given as “significant increase”. Also, on Aβ42 [4], the “decrease of amount of Spike1058 in mixed Aβ-Spike1058 sample” value stood at 39.54%. Besides, at Aβ42 [5], the “increase of Aβ's β-sheet content by co-incubation” value is 7-33%. Besides, in the data set with SH-SY5Y cells, the cell mortality entry is recorded as “elevated in a dose-dependent manner”, the “cell mortality vs Aβ control” value is on record as “less deleterious than Aβ control” and the “number of viable SH-SY5Y cells at increasing Spike:Aβ molar ratios” value is “gradual decline in number”. Moreover, the “impact on cell viability, less than Aβ control” value in the data set with SH-SY5Y cells (25 µM) amounted to 11%. The “viable SH-SY5Y cells compared with Aβ control group” value in the data set with SH-SY5Y cells (24 h) came out at 22%. Besides, in the data set on zebrafish embryos [6], the “hatching interference and mortality compared to control group” value was “pronounced hatching interference and mortality”; the “hatching rate in comparison to Aβ or Spike1058 alone” value is reported as “significantly decreased”; the “influence on hatching and mortality rate relative to Aβ” value is given as “more substantial influence than Aβ”; the “survival rate in comparison to Aβ or Spike1058 alone” value is listed as “significantly decreased”.

The values are drawn from paper PMC10480042 (ACS applied materials & interfaces, 2023).
